One data set relates to THP-1. The data set is described as follows: Inhibition of caspase-1-mediated IL-1beta production in LPS/ATP induced human THP1 cells by ELISA analysis. Type of data set: functional, cell-based. For orientation: An ELISA detects its analyte on a solid surface through an enzyme-linked reagent.
Another data set has as its target T1, Caspase-1 (Homo sapiens, UniProt P29466).
T1 sequence (P29466 whole entry): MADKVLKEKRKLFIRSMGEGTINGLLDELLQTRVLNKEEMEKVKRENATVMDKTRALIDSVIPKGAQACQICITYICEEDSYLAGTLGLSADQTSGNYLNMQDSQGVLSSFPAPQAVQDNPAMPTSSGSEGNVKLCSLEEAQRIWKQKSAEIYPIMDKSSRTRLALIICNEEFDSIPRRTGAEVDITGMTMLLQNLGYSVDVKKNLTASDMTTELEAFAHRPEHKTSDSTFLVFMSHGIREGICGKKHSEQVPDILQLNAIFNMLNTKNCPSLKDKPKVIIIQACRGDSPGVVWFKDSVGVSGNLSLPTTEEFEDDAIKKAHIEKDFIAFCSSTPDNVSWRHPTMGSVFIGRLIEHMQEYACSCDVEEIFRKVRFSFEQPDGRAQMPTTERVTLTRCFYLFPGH
The data set is described as follows: Inhibition of caspase-1 in LPS stimulated human PMBC cells after 2 hrs by ELISA analysis. Type of data set: cell-based.

The nature of data set [1]: Half life in C57BL/6 mouse at 3 mg/kg, iv administered as single dose. Type of data set: ADME, organism-based. The conditions noted are these: in vivo.
The nature of data set [2]: Oral bioavailability in single dosed C57BL/6 mouse at 20 mg/kg. It is filed as ADME, organism-based. The following applies: in vivo.
In the next data set the target is T2, Toll-like receptor 4 (Mus musculus, UniProt Q9QUK6).
T2 sequence (Q9QUK6 whole entry): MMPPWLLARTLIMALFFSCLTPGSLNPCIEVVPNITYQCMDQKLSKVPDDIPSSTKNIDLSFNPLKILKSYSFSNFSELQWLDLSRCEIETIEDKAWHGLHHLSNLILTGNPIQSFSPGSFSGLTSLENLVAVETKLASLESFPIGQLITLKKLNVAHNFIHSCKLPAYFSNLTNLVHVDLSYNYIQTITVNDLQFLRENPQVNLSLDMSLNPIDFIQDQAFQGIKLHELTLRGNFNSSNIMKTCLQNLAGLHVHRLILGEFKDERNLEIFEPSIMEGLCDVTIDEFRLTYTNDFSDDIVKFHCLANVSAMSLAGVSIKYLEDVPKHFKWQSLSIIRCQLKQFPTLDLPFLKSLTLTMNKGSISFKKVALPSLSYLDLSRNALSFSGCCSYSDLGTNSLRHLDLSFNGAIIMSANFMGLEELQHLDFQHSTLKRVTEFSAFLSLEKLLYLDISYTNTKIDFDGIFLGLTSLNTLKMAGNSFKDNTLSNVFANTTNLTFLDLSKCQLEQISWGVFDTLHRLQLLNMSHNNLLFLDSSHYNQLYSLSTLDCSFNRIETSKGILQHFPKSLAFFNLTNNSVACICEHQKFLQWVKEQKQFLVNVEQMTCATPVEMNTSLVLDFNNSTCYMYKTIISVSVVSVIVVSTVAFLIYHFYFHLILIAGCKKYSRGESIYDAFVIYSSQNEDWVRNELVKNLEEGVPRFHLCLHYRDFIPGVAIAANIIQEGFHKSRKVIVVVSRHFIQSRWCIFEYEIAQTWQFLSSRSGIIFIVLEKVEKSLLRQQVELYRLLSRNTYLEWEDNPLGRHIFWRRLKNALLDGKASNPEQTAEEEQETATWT
The data set is described as follows: Inhibition of TLR4 in LPS/INFgamma stimulated mouse peritoneal macrophages assessed as inhibition of IL1-beta after 20 hrs by ELISA analysis.

For data set [3], the target named is NACHT, LRR and PYD domains-containing protein 3 (Mus musculus, UniProt Q8R4B8). The data set is described as follows: Inhibition of NLRP3 in LPS stimulated mouse BMDM cells after 15 mins followed by addition of ATP by ELISA analysis. Type of data set: cell-based.
Chain of NACHT, LRR and PYD domains-containing protein 3 (Q8R4B8 whole entry, the tested form may be a part): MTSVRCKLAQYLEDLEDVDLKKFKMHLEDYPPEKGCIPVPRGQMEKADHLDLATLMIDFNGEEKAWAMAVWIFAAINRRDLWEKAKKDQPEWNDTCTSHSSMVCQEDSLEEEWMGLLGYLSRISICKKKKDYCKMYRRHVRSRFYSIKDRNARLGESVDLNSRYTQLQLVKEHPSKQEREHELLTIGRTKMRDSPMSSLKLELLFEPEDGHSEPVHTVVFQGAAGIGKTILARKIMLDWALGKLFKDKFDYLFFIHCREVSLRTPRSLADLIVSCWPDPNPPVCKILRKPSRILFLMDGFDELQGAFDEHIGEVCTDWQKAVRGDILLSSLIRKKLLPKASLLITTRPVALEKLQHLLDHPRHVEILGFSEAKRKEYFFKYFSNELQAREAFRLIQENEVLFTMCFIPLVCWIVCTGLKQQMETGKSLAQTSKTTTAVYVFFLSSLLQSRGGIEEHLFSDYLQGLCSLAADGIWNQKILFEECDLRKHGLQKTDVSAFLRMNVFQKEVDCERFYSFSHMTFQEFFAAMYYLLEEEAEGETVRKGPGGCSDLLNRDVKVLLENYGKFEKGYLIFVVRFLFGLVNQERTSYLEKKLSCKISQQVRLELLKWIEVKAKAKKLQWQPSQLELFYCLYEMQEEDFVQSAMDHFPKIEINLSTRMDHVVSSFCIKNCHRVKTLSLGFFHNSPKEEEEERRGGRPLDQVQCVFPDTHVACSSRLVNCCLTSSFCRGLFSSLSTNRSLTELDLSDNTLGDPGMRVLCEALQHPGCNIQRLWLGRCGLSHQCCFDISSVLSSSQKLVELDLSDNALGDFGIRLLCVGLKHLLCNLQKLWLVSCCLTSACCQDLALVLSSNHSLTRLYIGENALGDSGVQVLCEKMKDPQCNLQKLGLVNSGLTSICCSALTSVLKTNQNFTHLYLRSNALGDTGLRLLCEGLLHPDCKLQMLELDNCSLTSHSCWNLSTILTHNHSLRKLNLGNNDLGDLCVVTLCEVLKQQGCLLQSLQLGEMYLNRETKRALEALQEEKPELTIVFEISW
The target in a further data set is Pannexin-1 (Homo sapiens, UniProt Q96RD7). Description: Binding affinity to pannexin 1 channel (unknown origin).
Chain of Pannexin-1 (Q96RD7 whole entry): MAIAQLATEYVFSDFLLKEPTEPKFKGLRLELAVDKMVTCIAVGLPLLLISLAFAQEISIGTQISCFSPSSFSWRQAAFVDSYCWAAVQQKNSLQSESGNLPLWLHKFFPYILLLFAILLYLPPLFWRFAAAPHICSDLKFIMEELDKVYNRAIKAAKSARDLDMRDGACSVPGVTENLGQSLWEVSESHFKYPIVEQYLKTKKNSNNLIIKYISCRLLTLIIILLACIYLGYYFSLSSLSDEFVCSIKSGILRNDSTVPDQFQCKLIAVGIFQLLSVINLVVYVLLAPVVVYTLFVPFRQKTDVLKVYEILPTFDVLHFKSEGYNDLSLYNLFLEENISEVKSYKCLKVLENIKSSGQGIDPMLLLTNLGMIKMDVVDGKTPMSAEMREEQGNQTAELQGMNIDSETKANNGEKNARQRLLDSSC
Data set [4] is described as follows: Inhibition of organic anion transporter (unknown origin). Set-up: species or system Homo sapiens.
Another data set in a line: clinical. The following applies: human, plasma, po, 500 mg.

SMILES strings stand for the structures. A value given as a limit tells only on which side of the number the result lay.

The values that follow come from ChEMBL document CHEMBL3779837, “Inhibiting the Inflammasome: A Chemical Perspective” (J Med Chem, 2016).

A word on the IC50: it is the concentration needed to halve the response being measured. What is called half-life is the time in which the quantity being followed falls by half. By bioavailability is commonly meant dose-corrected exposure relative to a reference, in per cent. One may read the Cmax as the maximum level reached in the sampled fluid or tissue.

On to `O=C1C(Br)=C[C@@H](O)[C@H]2O[C@@H]12`, for which half-maximal inhibition with THP-1 (IC50) was put at 200 nM.
At Caspase-1, `O=C[C@H](CC(=O)O)NC(=O)[C@@H]1CCCN2C(=O)CC[C@H](NC(=O)c3nccc4ccccc34)C(=O)N12` [VRT-18858] had a 50% inhibitory concentration (IC50) of 670 nM.
Compound `O=C1C(Br)=C[C@H](O)[C@H]2O[C@@H]12` came in with an IC50 with THP-1 of 170 nM.
Same read-out and setting: to `O=C1C(Br)=C[C@@H](O)[C@@H]2O[C@H]12` belongs 190 nM.
For `CC(C)(O)c1coc(S(=O)(=O)NC(=O)Nc2c3c(cc4c2CCC4)CCC3)c1`, in data set [1], the half-life is 3 h. This compound also returned a bioavailability in data set [2] of 68%.
As for `CCOC(=O)C1=CCCC[C@H]1S(=O)(=O)Nc1ccc(F)cc1Cl` [RESATORVID], the IC50 at Toll-like receptor 4 turned out to be 5.7 nM.
`O=[N+]([O-])/C=C/c1ccc2c(c1)OCO2` came in with an IC50 in data set [3] of 2000 nM.
In the case of `O=C1C(Br)=C[C@H](O)[C@@H]2O[C@H]12`, the IC50 with THP-1 was found to be 280 nM.
The compound `CCO[C@@H]1OC(=O)C[C@@H]1NC(=O)[C@@H]1CCCN2C(=O)CC[C@H](NC(=O)c3nccc4ccccc34)C(=O)N12` [PRALNACASAN] yielded an IC50 at Caspase-1 of 420 nM.
Consider `CCCN(CCC)S(=O)(=O)c1ccc(C(=O)O)cc1` [PROBENECID], for which the IC50 at Pannexin-1 is 150000 nM; in [4], under 100000 nM. In addition, the highest level in the data set “clinical” (Cmax at 48 h) was 124 µM.
